From patent US8389231B2, “Assays, method and compositions that exploit a mycobacterial iron acquistion pathway in cells” (The Trustees of Princeton University, priority 2005, dated 2013)

Columns and labels:
[1] = system: macrophages (THP-1 cell line); test: MJ-mediated iron acquisition: conversion of MJ to Fe-MJ in macrophage culture, HPLC analysis; assay type: cell-based, human; settings: for effect on basal recovery of Fe-MJ: 10 μM metal transferrin added to macrophages with MJ; for stimulation of MJ-mediated iron acquisition from macrophages (conversion of MJ to Fe-MJ): 10 μM transferrin species added to macrophages with MJ, 37° C.
Description: Cell cultures. The THP-1 cell line (a macrophage-like monocyte) was purchased from American Type Culture Collection (ATCC) and used for all protocols. The cells were cultured into PRMI1640 (ATCC) supplemented with 10% fetal bovine serum (ATCC), 2 mM L-glutamine and 0.02 mM penicillin-streptomycin, and maintained at a cell concentration between 2×10^5 and 1×10^6 cells/ml at 37° C. in a 5% CO2 air atmosphere by addition of fresh growth medium (as described above) twice per week. Either PRMI1640 or phenol-red-free PRMI1640 was used with the supply of 2 mM L-glutamine and 0.02 mM penicillin-streptomycin, but in the absence of 10% FBS, for the experiments with MJ.
HPLC analysis for Fe-MJ and MJ. Varian ProStar & PrepStar HPLC and a Waters Delta Pak 5μ C18-300 Åcolumn were used with 3:7 H2O:CH3CN as eluting solution under all conditions. The intensities of the peak with retention time 43 min at 460 nm were integrated and normalized to the amount of Fe-MJ. Macrophages (final concentration, 1×10^5 cells/ml) or 0.05 mM DMPC vesicles as controls were preincubated in RPMI 1640 medium at 37° C. for 4 h, followed by the addition of MJ (final concentration, 1.5 μM). The media were incubated for 24 h at various conditions, such as in the presence or absence of hTf, at varied temperatures or in the presence of different concentrations of desferrioxamine mesylate salt. Three aliquots (3×4 ml) of the medium were collected and lysed by dunces. Lipophilic components were extracted into 3.5 ml CHCl3 and the mixture was centrifuged at 2500 r.p.m for 8 min. The organic layer extraction 2.5 ml was subject to a stream of argon to vaporize CHCl3. The dried mixture was dissolved into 400 μl CH3CN, of which 200 μl solutions was injected into HPLC. The peak intensity of 100% conversion to Fe-MJ was obtained by incubating 1.5 μM Fe-MJ into the medium, following the same workup above.

macrophage cells = test: Cell-aqueous-phase distributions of MJ and Fe-MJ; assay type: in vitro ADME, human
Description: Cell-aqueous-phase distributions of MJ and Fe-MJ. After the conversion from MJ to Fe-MJ, aqueous-phase Fe-MJ was obtained by separating the supernatant medium from macrophage cells via the centrifugation with 1500 r.p.m for 5 min. The aliquot of recovered supernatant was subject to CHCl3 extract and HPLC analysis as described above. For measurements of the cell/aqueous-phase partition coefficient of Fe-MJ, Fe-MJ 1.0 μM was incubated into RPMI 1640 medium at 37° C. for half an hour in the presence of various concentrations of macrophage cells. Then the supernatant was separated and analyzed as described above. For the partition coefficient of MJ, prior to the HPLC analysis, a 10-fold ferric citrate excess was added into a MJ-CH3CN solution, followed by a two-hr incubation for the complete conversion from MJ to Fe-MJ. Aqueous-phase and total MJ and Fe-MJ, Ctotal and Cw, respectively, were used to calculate Cv/Cw according to the relationship: Cv/Cw=(Ctotal−Cw)/Cw. The partition coefficient, K was defined according to the following equation: Cv/Cw=K×[Cell], in which [Cell] is the concentration of macrophage cells (cells/ml) and Cv is the amount of lipid-phase MJ or Fe-MJ.

[2] = Lipid-aqueous-phase partition coefficient using lipid vesicles as model membrane; assay type: physicochemical

Substance	effect on basal recovery of Fe-MJ [1]	stimulation of MJ-mediated iron acquisition from macrophages (conversion of MJ to Fe-MJ) [1]	also measured
Al(III) transferrin: Al(III) transferrin complex prepared from apo transferrin, Al(NO3)3 and nitrilotriacetic acid	greatly suppressed	failed to stimulate	–
Co-Tf: Cobalt(III) transferrin	–	more effective agonist than hTf	–
Ga(III) transferrin: Ga(III) transferrin complex prepared from apo transferrin	greatly suppressed	failed to stimulate	–
ferric mycobactin J [Fe-MJ]	–	–	Fe-MJ from the aqueous phase as share of total recovered Fe-MJ (macrophage cells; after 24-hr incubation of MJ in macrophage culture (1×10^5 cells/ml), presence or absence of hTf): 80%; cell-aqueous-phase partition coefficient K (Cv/Cw=K×[Cell]) (macrophage cells; macrophage cells, RPMI 1640, 37° C.): 9.8×10^−7 ml/cell; lipid-aqueous-phase partition coefficient Kx [2]: 3×10^5
hTf: fully saturated holo-transferrin (human transferrin), obtained from Sigma	–	nearly doubled	hTf-triggered conversion at low temperatures ([1]; 10 μM hTf, low temperatures (4° C. level similar to absence of hTf)): significantly suppressed
